Patent US20070129371A1, “Novel ethylenediamine derivatives” (Daiichi Pharmaceutical Co., Ltd., priority 2002, published 2007)
Structures can show the parent of a compound that is named as a salt.

Biological target: T1, human FXa (Homo sapiens, UniProt P00742)
T1 construct: purchased Enzyme Research Laboratories, Inc
Assay: Determination of human FXa-inhibiting effect (IC50 value)
Format: biochemical
Conditions: S-2222 chromogenic substrate, absorbance at 405 nm, Tris buffer pH 7.4, room temperature
Experimental: A 5% DMSO solution (10 μl) of each test compound, the concentrations of which had been suitably set stepwise, and Tris buffer (100 mM Tris, 200 mM potassium chloride, 0.2% BSA, pH 7.4) (40 μl) and 0.0625 U/ml human FXa (Enzyme Research Laboratories, Inc., dissolved in and diluted with Tris buffer) (10 μl) were put in each of the wells of a 96-well microplate. A 750 μM aqueous solution (40 μl) of S-2222 (Chromogenix Co.) was added. Absorbance at 405 nm was measured for 10 minutes at room temperature to determine an increase in absorbance (ΔOD/min). As a control, Tris buffer was used in place of the test compound.
The percent inhibition (%) calculated using the following equation at the final concentration of the test compound and the final concentration of the test compound were plotted on the ordinate and abscissa of logarithmic probability paper, respectively, to determine the 50% inhibition concentration (IC50 value) Percent inhibition (%)=[1−(ΔOD/min of test compound)÷(ΔOD/min of control)]×100

T1 sequence (P00742 235-488 limits assumed): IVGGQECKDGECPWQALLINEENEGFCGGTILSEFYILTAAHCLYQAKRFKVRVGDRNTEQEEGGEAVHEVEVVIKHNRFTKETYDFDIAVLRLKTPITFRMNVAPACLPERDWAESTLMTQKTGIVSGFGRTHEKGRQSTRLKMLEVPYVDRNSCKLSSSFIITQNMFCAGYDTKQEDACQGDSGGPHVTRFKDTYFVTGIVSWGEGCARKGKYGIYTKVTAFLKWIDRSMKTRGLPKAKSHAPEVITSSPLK
T1 sequence (P00742 41-179 partner limits assumed): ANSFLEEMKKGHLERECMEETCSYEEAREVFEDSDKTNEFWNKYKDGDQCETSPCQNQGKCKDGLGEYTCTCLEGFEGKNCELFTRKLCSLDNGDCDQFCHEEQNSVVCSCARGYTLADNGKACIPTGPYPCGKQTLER

| Compound | IC50 |
| --- | --- |
| CN1CCc2nc(C(=O)NC(CNC(=O)C(=O)Nc3ccc(Cl)cn3)C(=O)N3CCS(=O)(=O)CC3)sc2C1 (centres unmarked) [Example 2, N^1-(5-Chloropyridin-2-yl)-N^2-(3-(1,1-dioxothiomorpholin-4-yl)-2-{[(5-methyl-4,5,6,7-tetrahydrothiazolo[5,4-c]pyridin-2-yl)carbonyl]amino}-3-oxopropyl)ethanediamide hydrochloride] | 7.1 nM |
| CN1CCc2nc(C(=O)N[C@@H](CNC(=O)C(=O)Nc3ccc(Br)cn3)C(=O)N(C)C)sc2C1 [Example 37, N^1-(5-Bromopyridin-2-yl)-N^2-((2S)-3-(dimethylamino)-2-{[(5-methyl-4,5,6,7-tetrahydrothiazolo[5,4-c]pyridine-2-yl)carbonyl]amino}-3-oxopropyl)ethanediamide hydrochloride] | 1.5 nM |
| CN1CCc2nc(C(=O)N[C@@H](CNC(=O)C(=O)Nc3ccc(Br)cc3)C(=O)N(C)C)sc2C1 [Example 38, N^1-(4-Bromophenyl)-N^2-((2S)-3-(dimethylamino)-2-{[(5-methyl-4,5,6,7-tetrahydrothiazolo[5,4-c]pyridin-2-yl)carbonyl]amino}-3-oxopropyl)ethanediamide hydrochloride] | 0.81 nM |
| CN1CCc2nc(C(=O)N[C@@H](CNC(=O)C(=O)Nc3ccc(Cl)s3)C(=O)N(C)C)sc2C1 [Example 40, N^1-(5-Chlorothien-2-yl)-N^2-((2S)-3-(dimethylamino)-2-{[(5-methyl-4,5,6,7-tetrahydrothiazolo[5,4-c]pyridin-2-yl)carbonyl]amino}-3-oxopropyl)ethanediamide hydrochloride] | 1.3 nM |
| CN1CCc2nc(C(=O)N[C@@H](CNC(=O)C(=O)Nc3ccc(Cl)cc3)c3cnco3)sc2C1 [Example 62, N^1-(4-Chlorophenyl)-N^2-[(2S)-2-{[(5-methyl-4,5,6,7-tetrahydrothiazolo[5,4-c]pyridin-2-yl)carbonyl]amino}-2-(1,3-oxazol-5-yl)ethyl]ethanediamide hydrochloride] | 1.8 nM |

The remaining molecules from weak to strong by IC50, led by results:

| IC50 | Compound |
| --- | --- |
| 2.4 nM | CN1CCc2nc(C(=O)N[C@@H](CNC(=O)C(=O)Nc3ccc(Cl)cn3)C(=O)N(C)C)sc2C1 [Example 26, N^1-(5-Chloropyridin-2-yl)-N^2-((2S)-3-(dimethylamino)-2-{[(5-methyl-4,5,6,7-tetrahydrothiazolo[5,4-c]pyridin-2-yl)carbonyl]amino}-3-oxopropyl)ethanediamide hydrochloride] |
| 2 nM | C[C@@H](NC(=O)C(=O)Nc1ccc(Cl)cn1)[C@H](NC(=O)c1nc2c(s1)CN(C)CC2)C(=O)N(C)C [Example 66, N^1-(5-Chloropyridin-2-yl)-N^2-((1R,2S)-3-(dimethylamino)-1-methyl-2-{[(5-methyl-4,5,6,7-tetrahydrothiazlo [5,4-c]pyridin-2-yl)carbonyl]amino}-3-oxopropyl)ethanediamide hydrochloride] |
| 0.86 nM | CN1CCc2nc(C(=O)N[C@@H](CNC(=O)C(=O)Nc3ccc(Cl)cc3)C(=O)N(C)C)sc2C1 [Example 39, N^1-(4-Chlorophenyl)-N^2-((2S)-3-(dimethylamino)-2-{[(5-methyl-4,5,6,7-tetrahydrothiazolo[5,4-c]pyridin-2-yl)carbonyl]amino}-3-oxopropyl)ethanediamide hydrochloride] |
